How the values were obtained:
mouse cortical neurons = assay: PI staining (DNA content, cell cycle, cell numbers, apoptotic fraction), Acumen cytometry; type: cell-based; settings: 0.01 and 0.1 mg/ml
Method: The study aims were to evaluate the effect of LMW-DS on cell survival and expression of differentiation proteins in three cell types, cerebral cortical neurons, motor neurons and Schwann cells, using two concentrations 0.01 and 0.1 mg/ml of LMW-DS.
Neurons were cultured as 40,000 cells per well and Schwann cells 3,000 cells per. Cells were treated after 24 hours. The number of cells per well depended on the growth phenotype, proliferative capacity, etc.
PNGM was prepared by adding PNGM Singlequots (Lonza) to PNBM medium and pre-warmed to 37° C. Cells were thawed in a 37° C. water bath for no longer than 2 min and gently transferred into a 15 ml tube. 5 ml of medium was gently added drop-wise. Cell suspension was mixed by inverting the tube carefully twice. Cells were counted with a Cellometer AUTO T4 (Nexcelom Bioscience). 40,000 cells per well were seeded in previously coated 96-well plates. Cells were incubated at 37° C. with 5% CO2. After at 2-hour incubation 80 μl of medium was removed and replaced with 80 μl of fresh medium and cells were allowed to settle for 24 hours before drug treatment.
LMW-DS was prepared in the culture media of choice for each cell line and added to the respective wells in the doses 0.01 and 0.1 mg/ml. For cell survival assays cells were analyzed after 24 and 48 hours in eight identical wells/dose/time point. Differentiation and protein expression assay was analyzed after 48 hours, also in octuplicates.
Cells were fixated in the wells. Propidium iodine was used for viability assay. For immunohistochemical analysis, neurons were stained with βIII-tubulin, which is a tubulin specific for neurons. Schwann cells were stained for Myelin Basic Protein (MBP). For the negative controls PBST (0.1% Triton-X-100 in PBS) was applied instead of primary antibodies.
The Acumen cytometer allows the direct cytometric analysis of attached cells without prior detachment. […] The protein content of the cells can also be directly measured and expressed as either ‘total protein content’ or ‘mean protein content’.

[1] = test system: Human umbilical vein endothelial cells (HUVECs); assay: Gene expression array and pathway analysis, HUVECs; type: cell-based
Method: For each cell line, n=8×25 cm^2 culture flasks were set up. Two flasks were harvested for each cell type on the day of treatment (24 hours after seeding). This represents the Day0 time point. From the remaining flasks, three flasks were treated with Control Medium and three were treated with Culture Medium (CM) containing LMW-DS to give a final concentration of 0.01 mg/ml. Cells from the treated flasks were collected after 48 hours. Therefore the collected data represent (a) untreated cells (Day0 Controls and Day2 Controls) and (b) cells treated with LMW-DS for 48 hours (Day2 LMW-DS treated).
25 cm^2 flasks were coated by adding 2 ml per flask of a solution of 50 μg/ml poly-d-lysine in Hank's balanced salt solution (HBSS) and incubating overnight at 37° C. in the dark. Flasks were washed with cell culture water and air-dried for 30 min in the dark. Flasks were coated by adding 1 ml per flask of a solution of 25 μg/ml laminin in phosphate-buffered saline (PBS) and incubating for 2 hour at 37° C. in the dark. The laminin flasks were washed with PBS three times before plating cells.
Medium 200+Large Vessel Endothelial Supplement (M200+LVES) additive (1:50) was prepared and pre-warmed to 37° C. Cells were thawed in a 37° C. water bath for no longer than 2 min and gently transferred into a 50 ml tube containing 20 ml Dulbecco's Modified Eagle Medium, Nutrient Mixture F-12 (DMEM-F12). The cell suspension was mixed by inverting the tube carefully twice. Cells were spun at 400×g for 10 minutes. Supernatant removed and cells were resuspended in 10 ml of culture media (M200+LVES additive).
Cells were counted with the Cellometer. 1,000,000 cells/flask were seeded in 25 cm^2 flasks (n=8) and medium was topped up to a total of 5 ml per flask. Cells were incubated at 37° C. with 5% CO2. Cells were allowed to settle for 24 hours before LMW-DS treatment.
LMW-DS was provided at a stock concentration of 20 mg/ml and was kept in a temperature monitored refrigerator at 4° C. A fresh […]LMW-DS stock (1.0 mg/ml) was prepared in sterile DMEM-F12. The concentrated drug stock was sterile filtered and added to the respective culture media (19.6 ml CM and 0.4 ml LMW-DS stock solution). The Control was made using 19.6 ml CM and 0.4 ml of DMEM-F12. LMW-DS and CM were added to the respective flasks (5 ml each) to reach the 0.01 mg/ml concentration of LMW-DS in each dish with a total of 10 ml CM each.
CM was aspirated into a clean and labelled 15 ml Falcon tube. The flasks (without culture medium) were placed into the −80° C. freezer for 30 minutes. The CM in the Falcon tubes were spun at 3000×g for 5 minutes. Supernatant was removed and the small pellet was re-suspended in 2.5 ml Trizol:Water (4:1) solution at room temperature (RT, […]).
Two aliquots of 1 ml lysate was removed from each sample and 200 μl of chloroform was added to each (0.2 ml of chloroform per 1 ml of TRIzol Reagent used during the cell lysis step) and the tube was shaken vigorously. Samples were stored at RT for 2-3 minutes and subsequently centrifuged at 12,000×g for 15 minutes at 4° C.
The expression data were downloaded into separate files for each cell line. The ‘Background corrected’ expression is the data from the “gProcessedSignal” of the arrays that is the result of the background signal extracted from the actual signal of the relevant probe. This is the most often used variable in array analysis. The background corrected signal was log 2 transformed for all samples for statistical analysis. To reduce the false discovery rate in the samples, the signals that were below ‘expression level’ were removed. The ‘below expression’ level was set at 5 for the log 2 transformed expression values.
Based on the expression pattern of the Control probes on each array it was decided to carry out Median Centering for all arrays before analysis to reduce the variability of the results. […]

## low molecular weight dextran sulfate [LMW-DS]
Mouse cortical neurons
  cell numbers: significantly reduced
  fraction of apoptotic cells: increased slightly
Mouse cortical neurons; 24 and 48 h
  number of cells in the G2/M phase (PI content): appeared to increase the number of cells in the G2/M phase
[1]; 0.01 mg/ml, 48 h
  aggregate effect on adhesion and angiogenesis (1 molecule, ADAM11): adhesion would not be affected but angiogenesis would be activated
  differential regulation of the 197 genes regulating cell attachment: none are differentially regulated
  modulation of the effects of oxidative stress on mitochondria: no significant modulation
  number of genes differentially expressed, D0 control vs D2 LMW-DS treated: 1779 genes
  number of genes differentially expressed, D2 control vs D2 LMW-DS treated: 76 genes
  number of genes: abolished nutrient effect / no effect: 67
  number of genes: abolished nutrient effect / significant downregulation: 4
  number of genes: abolished nutrient effect / significant upregulation: 11
  number of genes: abolished nutrient effect / total: 82
  number of genes: enhanced response to nutrients / significant downregulation: 120
  number of genes: enhanced response to nutrients / significant upregulation: 229
  number of genes: enhanced response to nutrients / total: 349
  number of genes: not different from control / significant downregulation: 167
  number of genes: not different from control / significant upregulation: 1326
  number of genes: not different from control / total: 1493
  number of genes: total / no effect: 67
  number of genes: total / significant downregulation: 291
  number of genes: total / significant upregulation: 1566
  number of genes: total / total: 1924
[1]; D2 LMW-DS treatment
  upstream regulator HGF: activation z-score: 3.194
  upstream regulator HGF: predicted activation state relative D2 control: Activated relative to control
  upstream regulator TGFβ1: activation z-score: 1.429
  upstream regulator TGFβ1: predicted activation state relative D2 control: Activated relative to control
  upstream regulator VEGF: activation z-score: 3.432
  upstream regulator VEGF: predicted activation state relative D2 control: Activated relative to control

Source: patent US11534457B2, “Use of dextran sulfate” (priority 2017, dated 2022)
